In patent publication US20240082221A1, “COMPOSITIONS AND METHODS FOR THE IDENTIFICATION OF COMPOUNDS THAT PROTECT AGAINST LIPOFUSCIN CYTOTOXICITY” (priority 2021, published 2024):

Assays:
ARPE19 cells = test: ATR-induced light-independent cell death; type: cell-based, Human; settings: pre-treatment with 33 μM
Text: Overall, these indicate that necroptosis is a specific readout of ocular lipofuscin toxicity, easily distinguishable from the poisonous effects of ATR.

CHOP = test: Western blot of CHOP upregulation (UPR, downstream of PERK); type: cell-based, Human; settings: cells incubated with A2E
Procedure: Immunoblotting. Total cell lysates were extracted using RIPA lysis buffer (50 mM TrisHCl, Ph 8.0, 150 mM NaCl, 1% NP40, 0.5% Sodium Deoxycholate, 0.1% SDS, protease-phosphatase inhibitor) after the incubation of the specific sample group in a 48 well plate. Sonication or syringing (20 times) was done followed by centrifugation at 12,000×g for 10 mins and the supernatant was collected and stored in −80° C. Proten concentration from homogenates were assessed by Pierce Rapid Gold BCA protein assay kit (ThermoFisher Scientific, cat.no. A53225). Then 30 μg of protein was analyzed by standard SDS-PAGE gel. Samples were mixed 4:1 (v:v) with Nupage loading buffer with or without 8% 0-mercaptoethanol and heated for 10 min at 72° C. SDS-PAGE was done using 4-12% Nupage gel and buffer (Life, NP0335BOX). Next, SDS-PAGE gel was transferred to nitrocellulose membrane (Whatman, PROTAN BA83) overnight at 20V. The following day, 5% milk in TBS was used for 2 h blocking the membrane and then primary antibody was added in TBST (TBS, 0.1% Tween-20) for overnight at 4° C. Next day membranes were washed and incubated for 2 hours at room temperature with HRP conjugated secondary antibody (cat #G21234, Invitrogen) at 1:10,000 dilution. After 3 more washed membranes were probed with enhanced chemiluminescence (ECL) reagent and detected using an X-ray films for chemiluminescence image (GE healthcare, RPN2106). Scanning/imaging and quantitation of the image was done using silverfast 8 application software and Fiji Image J. Antibodies for Western blotting were list in FIG. 10.

[1] = tested on: unfolded protein response (UPR) pathway; test: RNAseq / Ingenuity Pathway Analysis of cells with dark LF cytotoxicity; type: cell-based, Human; settings: cells with dark LF cytotoxicity vs cells rescued by treatment
Procedure: RNAseq. Cultured ARPE19 cells were treated with or without 15 uM A2E for 24 hours, then cells were harvested and total RNA extracted. […]. RNAseq profiles were analyzed further with Ingenuity Pathway Analysis (IPA, Qiagen).
To investigate the cellular processes leading to necroptosis, Ingenuity Pathway Analysis (IPA) was used to compare the transcriptomes of cells suffering of dark LF cytotoxicity with cells rescued by Nec7 treatment. […] The UPR is a conserved transcriptional response to the aberrant accumulation of misfolded proteins or lipids in the endoplasmic reticulum. UPR is elicited by three ER-resident sensors: PERK, IRE1α and […]. […] To evaluate the impact of UPR downregulation, the list of UPR transcripts inhibited by Nec7 was extracted and a new IPA analysis was performed for the downstream consequences (FIG. 5D).

cathepsin D = type: cell-based
Text: Next, A2E buildups were imaged using a combination of DIC and fluorescence: A2E appeared as granules with well-defined edges, both within cells or after drying over a coverslip (FIGS. 14D and 14E). Next, the ability of the suspected A2E crystals to damage lysosomal membranes was investigated. A recently developed galectin-3 puncta assay for early detection of lysosomal membrane permeabilization (LMP) was used. Briefly, cytosolic galectin-3 rapidly binds to the glycocalyx in the luminal face of lysosomal membranes as they become leaky, which is easily detectable with anti-galectin high-affinity antibodies. L-Leucyl-L-Leucine methyl ester (LLO) a lysosomotropic peptide that causes LMP was used as positive control of puncta formation (FIG. 14E). […] LMP was confirmed by showing the […] of cathepsin D, as surrogate of lysosomal enzymes. […] Also, very remarkable was the observation that the same unique pattern of protection with arimoclomol and Nec-7 but not Nec-1 was observable for LLO (FIG. 14K), consistent with the idea that necroptosis by A2E is being caused by LMP.

[2] = tested on: EDN2, FGF2, GFAP, SERP, VEGF, CXCL15, XBP1s, SCAND1, CEBPA, HMGA; test: Intravitreal treatment of DKO mice, qPCR of retinal degeneration markers in whole retina; type: in vivo, ABCA4−/− RDH8−/− double knock-out mice (DKO); settings: total RNA from whole retina, vs control injected eyes
Procedure: Pharmacological treatment of mice. KIRA6 (Cayman Chemical, item no. 19151) was injected intravitreously with 1 μL total volume. KIRA6 concentration is 20 μg/ml. The control eye received an equal amount of mock reagent (DMSO). Mouse was weighed and anesthetized with Ketamine cocktail at 10 mg/kg, then mouse eyes were dilated with Tropicamide. The exact volume of Mock reagent or Kira6 was determined by 10 μl Hamilton syringe. Under surgery microscope, mouse eye was placed in the center of the field, 34 gauge of needle was inserted into mouse eye at the Ora serrata and towards ONH. Once the needle was inside the mouse eye, 2 μl of the contents in the Hamilton syringe was injected. The needle was slowly withdrawn to prevent the reflux of the solution. Nec7 (2 μL of 33 mM stock in DMSO) was intravitreally injected in the left eye and an equal amount of vehicle (DMSO) was administered to the right eye. After intravitreal injection, the mouse was placed in a warm place until it completely woke up. […]
RNA isolation and quantitative PCR. […] The total RNA then was reversed transcribed using High-Capacity cDNA Reverse Transcription Kit (ThermoFisher Scientific, cat.no. 4368814) and analyzed gene expression using SYBR Green Master Mix (ThermoFisher Scientific, cat.no. 4472908) in an Applied Biosystems StepOne real time PCR machine. […]

Compound | effect on cell death by ATR (ARPE19 cells) | effect on LF-induced upregulation of CHOP / UPR (CHOP) | transcriptome pathway variation induced by treatment (IPA) [1] | effect on loss of cathepsin-D activity caused by A2E (cathepsin D) | mRNA levels of markers for retinal degeneration, inflammation/angiogenesis, ER-stress and necroptosis [2]
N=C1S/C(=C\c2cn[nH]c2-c2ccc(F)cc2)C(=O)N1c1nccs1 [Nec7, Necrostatin 7] | did not block cell death | completely abrogated | inhibition of the unfolded protein response (UPR) | prevented | –
CC(C)(C)c1nc(-c2ccc(NC(=O)Nc3cccc(C(F)(F)F)c3)c3ccccc23)c2c(N)nccn12 [KIRA6] | – | – | – | – | generalized reduction in all the tested markers
